One data set relates to HeLa. Description: cells. The note with it: Homo sapiens, 48 h.
For the next data set, the system named is SW480. Description: cells. The note with it: Homo sapiens, SW480, 48 h.
A further data set deals with MDA-MB-231. As to the kind of experiment: cells. Particulars: Homo sapiens, MDA-MB-231, 48 h.
The test system of a further data set is SGC-7901. As to the kind of experiment: cells. The note with it: Homo sapiens, SGC-7901, 48 h.
A further data set is described as follows: cells. Particulars: Homo sapiens, QGY7701, 48 h.
Another data set deals with A549. As to the kind of experiment: cells. The note with it: Homo sapiens, A549, 48 h.
The next data set can be described thus: physchem. The note with it: octanol/water.

Experimental findings from ChEMBL document CHEMBL2417411, “Design and synthesis of novel 2'-hydroxy group substituted 2-pyridone derivatives as anticancer agents” (Eur J Med Chem, 2013) are described below.

SMILES strings stand for the structures.

Description for A549: Cytotoxicity against human A549 cells after 48 hrs by MTT assay
Description for HeLa: Cytotoxicity against human HeLa cells after 48 hrs by MTT assay
Description for MDA-MB-231: Cytotoxicity against human MDA-MB-231 cells after 48 hrs by MTT assay
Description for SGC-7901: Cytotoxicity against human SGC7901 cells after 48 hrs by MTT assay
Description for SW480: Cytotoxicity against human SW480 cells after 48 hrs by MTT assay
Description for physchem: Lipophilicity, log P of the compound

The molecule `O=c1[nH]cc(F)c(=O)[nH]1` [FLUOROURACIL] yielded an IC50 in the data set with HeLa of 16.5 µM.
For `COc1ccc(C(=O)c2ccc(=O)n(-c3ccccc3C)c2)c(OC(=O)c2ccc(C)cc2)c1`, the concentration for half-maximal inhibition (IC50) was 2.31 µM in the data set on SW480; 0.54 µM with MDA-MB-231; 3.96 µM in the data set on SGC-7901; above 30 µM in the data set “cells”; 3.24 µM in the data set with A549; 3.27 µM in the data set with HeLa. Further, in the data set “physchem”, the logP was determined as 4.32.
Consider `COc1ccc(C(=O)c2ccc(=O)n(-c3ccccc3C)c2)c(OCc2cn(Cc3ccc(C)cc3)nn2)c1`, for which the IC50 in the data set on SW480 is 0.48 µM; in the data set with MDA-MB-231, 0.49 µM; in the data set on SGC-7901 it was 5.48 µM; in “cells”, above 30 µM; in the data set with A549 it was 0.61 µM; in the data set with HeLa it was 0.38 µM. Moreover, the logP in “physchem” stood at 4.1.
For `COc1ccc(Cn2cc(COc3cc(OC)ccc3C(=O)c3ccc(=O)n(-c4ccccc4C)c3)nn2)cc1`, the IC50 with SW480 was above 30 µM; in the data set with MDA-MB-231 it was 0.59 µM; with SGC-7901 it was 1.28 µM; in the data set “cells”, above 30 µM; with A549 it was 1.54 µM; in the data set on HeLa, 0.99 µM. The logP in “physchem” came out at 3.79.
For the molecule `COc1ccc(C(=O)c2ccc(=O)n(-c3ccccc3C)c2)c(OCc2cn(Cc3ccccc3)nn2)c1`, the IC50 in the data set on SW480 was 2.51 µM; with MDA-MB-231 it was above 30 µM; in the data set on SGC-7901, 1.25 µM; in “cells”, above 30 µM; in the data set on A549, 3.64 µM; in the data set on HeLa, 4.23 µM. Further, the logP in “physchem” is 3.88.
As to `COc1ccc(C(=O)c2ccc(=O)n(-c3ccccc3C)c2)c(OCc2cn(Cc3ccccc3C#N)nn2)c1`, the IC50 with SW480 is above 30 µM; with MDA-MB-231 it was above 30 µM; in the data set with SGC-7901, above 30 µM; in “cells”, above 30 µM; with A549, 8.32 µM; in the data set on HeLa, 8.05 µM. This molecule also registered a log partition coefficient (logP) in “physchem” of 3.6.
Regarding `COc1ccc(C(=O)c2ccc(=O)n(-c3ccccc3C)c2)c(OCc2cn(Cc3cccc(Cl)c3)nn2)c1`, the half-maximal inhibitory concentration (IC50) was 1.37 µM in the data set with SW480; 0.38 µM in the data set with MDA-MB-231; above 30 µM in the data set with SGC-7901; above 30 µM in the data set “cells”; 1.53 µM in the data set on A549; 3.71 µM in the data set with HeLa. In addition, the logP in the data set “physchem” was 4.05.
Take `COc1ccc(C(=O)c2ccc(=O)n(-c3ccccc3C)c2)c(OCc2cn(Cc3cccc(C)c3)nn2)c1`: the IC50 in the data set on SW480 is 2.45 µM; in the data set with MDA-MB-231, 0.21 µM; in the data set on SGC-7901 it was above 30 µM; in “cells” it was 6.38 µM; with A549 it was 3.25 µM; with HeLa, 3.27 µM. In the data set “physchem”, this molecule registered a logP of 4.1.
For the molecule `COc1ccc(C(=O)c2ccc(=O)n(-c3ccccc3C)c2)c(OC(=O)c2ccc(Cl)cc2)c1`, the IC50 was 1.33 µM in the data set on SW480; 1.84 µM in the data set with MDA-MB-231; 5.79 µM in the data set with SGC-7901; above 30 µM in the data set “cells”; 5.23 µM with A549; 1.56 µM in the data set with HeLa. In “physchem”, this molecule came in with a logP of 4.27.
For `COc1ccc(C(=O)c2ccc(=O)n(-c3ccccc3C)c2)c(OCc2cn(Cc3ccc(F)cc3)nn2)c1`, the IC50 in the data set with SW480 amounted to 2.37 µM; with MDA-MB-231 it was 1.46 µM; with SGC-7901, 0.19 µM; in the data set “cells”, 5.44 µM; with A549, 0.48 µM; in the data set on HeLa it was 8.48 µM. In addition, the logP in the data set “physchem” turned out to be 3.59.
`COc1ccc(C(=O)c2ccc(=O)n(-c3ccccc3C)c2)c(OC(=O)Cc2ccccc2Cl)c1`: the IC50 in the data set on SW480 was 1.17 µM; in the data set with MDA-MB-231 it was 2.97 µM; with SGC-7901, 1.45 µM; in “cells” it was 6.05 µM; with A549, 1.94 µM; with HeLa, 0.87 µM. In the data set “physchem”, this molecule displayed a logP of 4.4.
In the case of `COc1ccc(C(=O)c2ccc(=O)n(-c3ccccc3C)c2)c(OC(C)=O)c1`, the IC50 in the data set with SW480 was above 30 µM; in the data set on MDA-MB-231 it was above 30 µM; in the data set on SGC-7901, 6.21 µM; in “cells”, above 30 µM; in the data set with A549, above 30 µM; in the data set on HeLa, above 30 µM. In addition, the logP in “physchem” was 2.7.
Regarding `COc1ccc(C(=O)c2ccc(=O)n(-c3ccccc3C)c2)c(OC(=O)c2ccc(F)cc2)c1`, the IC50 in the data set on SW480 worked out at 2.78 µM; in the data set with MDA-MB-231 it was 2.35 µM; in the data set on SGC-7901 it was 3.62 µM; in “cells” it was 9.64 µM; with A549 it was 3.68 µM; in the data set on HeLa, 6.86 µM. In “physchem”, this molecule came in with a logP of 3.81.
Regarding `C#CCOc1cc(OC)ccc1C(=O)c1ccc(=O)n(-c2ccccc2C)c1`, the IC50 in the data set on SW480 was 5.33 µM; with MDA-MB-231, above 30 µM; with SGC-7901, 6.94 µM; in the data set “cells”, 9.08 µM; in the data set on A549, 7.59 µM; in the data set with HeLa, 7.82 µM.
For `COc1ccc(C(=O)c2ccc(=O)n(-c3ccccc3C)c2)c(OCc2cn(Cc3ccccc3Br)nn2)c1`, the IC50 with SW480 was 3.62 µM; in the data set with MDA-MB-231 it was above 30 µM; with SGC-7901, 1.23 µM; in the data set “cells” it was above 30 µM; with A549 it was 5.35 µM; in the data set on HeLa it was 5.22 µM. For the same molecule, in “physchem”, the logP came to 4.05.
Take `COc1ccc(C(=O)c2ccc(=O)n(-c3ccccc3C)c2)c(OCc2cn(Cc3ccccc3C)nn2)c1`: the 50% inhibitory concentration (IC50) with SW480 was 3.07 µM; in the data set on MDA-MB-231 it was 1.34 µM; in the data set with SGC-7901, above 30 µM; in the data set “cells”, 4.63 µM; with A549 it was 3.21 µM; in the data set with HeLa, 4.86 µM. This molecule also displayed a logP in “physchem” of 4.1.
Turning to `COc1ccc(C(=O)c2ccc(=O)n(-c3ccccc3C)c2)c(OC(=O)c2ccccc2)c1`, the IC50 in the data set on SW480 was 3.12 µM; with MDA-MB-231 it was 1.18 µM; in the data set with SGC-7901 it was 1.42 µM; in the data set “cells”, above 30 µM; in the data set with A549, 4.47 µM; in the data set with HeLa it was 7.29 µM. In addition, the logP in the data set “physchem” came to 4.09.
Consider `CCCOC(=O)Oc1cc(OC)ccc1C(=O)c1ccc(=O)n(-c2ccccc2C)c1`, for which the IC50 in the data set with SW480 was 5.97 µM; in the data set with MDA-MB-231, 2.11 µM; in the data set on SGC-7901, 4.18 µM; in the data set “cells”, above 30 µM; in the data set with A549, 6.13 µM; in the data set on HeLa, 7.03 µM. The molecule also yielded a logP in the data set “physchem” of 3.31.
With `COc1ccc(C(=O)c2ccc(=O)n(-c3ccccc3C)c2)c(OC(=O)c2cc([N+](=O)[O-])cc([N+](=O)[O-])c2)c1`, the IC50 with SW480 was 2.75 µM; in the data set with MDA-MB-231, 3.28 µM; with SGC-7901 it was 2.44 µM; in “cells”, above 30 µM; in the data set with A549 it was 3.89 µM; in the data set on HeLa it was 5.33 µM. In “physchem”, this molecule came in with a logP of 3.88.
In the case of `CCOC(=O)Oc1cc(OC)ccc1C(=O)c1ccc(=O)n(-c2ccccc2C)c1`, the IC50 in the data set with SW480 is 4.56 µM; with MDA-MB-231 it was above 30 µM; with SGC-7901, 3.35 µM; in the data set “cells”, above 30 µM; with A549, 5.83 µM; in the data set on HeLa, 7.44 µM. Further, the lipophilicity (logP) in “physchem” was 2.95.
As for `COc1ccc(C(=O)c2ccc(=O)n(-c3ccccc3C)c2)c(OCc2cn(Cc3ccc(Br)cc3)nn2)c1`, the IC50 is above 30 µM in the data set on SW480; 2.47 µM in the data set on MDA-MB-231; 2.29 µM in the data set on SGC-7901; 4.99 µM in “cells”; 5.45 µM with A549; 4.25 µM in the data set on HeLa. This molecule also returned a logP in the data set “physchem” of 4.23.
`CCCCC(CC)C(=O)Oc1cc(OC)ccc1C(=O)c1ccc(=O)n(-c2ccccc2C)c1` (centres undefined): the half-inhibitory concentration (IC50) in the data set with SW480 was 3.35 µM; in the data set on MDA-MB-231 it was 0.37 µM; in the data set on SGC-7901, 1.48 µM; in the data set “cells”, above 30 µM; in the data set on A549, 2.95 µM; in the data set with HeLa it was 2.28 µM. This molecule also came in with a logP in “physchem” of 5.04.
Consider `COc1ccc(C(=O)c2ccc(=O)n(-c3ccccc3C)c2)c(OCc2cn(Cc3ccccc3Cl)nn2)c1`, for which the IC50 is 0.39 µM with SW480; 0.38 µM in the data set on MDA-MB-231; above 30 µM with SGC-7901; 4.72 µM in the data set “cells”; 0.69 µM with A549; 1.7 µM in the data set with HeLa. In “physchem”, this molecule returned a log partition coefficient (logP) of 4.05.
`COc1ccc(C(=O)c2ccc(=O)n(-c3ccccc3C)c2)c(OCc2cn(Cc3cccc(O[N+](=O)[O-])c3)nn2)c1`: the IC50 in the data set on SW480 amounted to 4.42 µM; in the data set on MDA-MB-231, 1.39 µM; in the data set on SGC-7901, 0.55 µM; in the data set “cells”, 3.01 µM; with A549 it was 3.61 µM; with HeLa it was 3.12 µM. For the same molecule, the logP in the data set “physchem” was determined as 3.77.
For the molecule `COc1ccc(C(=O)c2ccc(=O)n(-c3ccccc3C)c2)c(OCc2cn(Cc3cccc(Br)c3)nn2)c1`, the half-maximal inhibitory concentration (IC50) is 2.32 µM in the data set on SW480; above 30 µM in the data set with MDA-MB-231; 5.68 µM in the data set on SGC-7901; above 30 µM in “cells”; 4.46 µM in the data set on A549; 4.52 µM with HeLa. The logP in the data set “physchem” was found to be 4.05.
Consider `COc1ccc(C(=O)c2ccc(=O)n(-c3ccccc3C)c2)c(OCc2cn(Cc3ccc(Cl)cc3Cl)nn2)c1`, for which the half-inhibitory concentration (IC50) in the data set on SW480 came out at 2.22 µM; with MDA-MB-231 it was 1.19 µM; in the data set on SGC-7901, 0.41 µM; in “cells”, 6.43 µM; in the data set with A549 it was 2.56 µM; with HeLa, 3.51 µM. Besides, the log partition coefficient (logP) in the data set “physchem” is 4.23.
Regarding `COc1ccc(C(=O)c2ccc(=O)n(-c3ccccc3C)c2)c(OCc2cn(Cc3ccccc3F)nn2)c1`, the IC50 is 3.28 µM in the data set with SW480; 1.14 µM in the data set with MDA-MB-231; above 30 µM with SGC-7901; above 30 µM in the data set “cells”; 3.96 µM in the data set on A549; 4.83 µM in the data set with HeLa. The molecule also yielded a logP in the data set “physchem” of 3.59.
Take `COc1ccc(C(=O)c2ccc(=O)n(-c3ccccc3C)c2)c(OC(=O)Cc2ccc(Cl)cc2)c1`: the IC50 with SW480 turned out to be 0.58 µM; in the data set with MDA-MB-231 it was 2.44 µM; with SGC-7901, 3.48 µM; in the data set “cells”, 5.68 µM; with A549, 0.49 µM; with HeLa it was 0.58 µM. In addition, the logP in the data set “physchem” came out at 4.4.
